Assays:
SKOV3 = assay: WST-1 viability of SKOV3 cells; format: cell-based; conditions: with immunotoxin, data not shown
Procedure: The inhibition of protein synthesis in treated cells was assayed by the addition of 3H-leucine (2 μCi/mL) for 4 hours in 96-well plates. Filter mats and samples were used to count cells using a Wallac beta plate reader. Water-soluble tetrazolium-1 (WST-1; Roche) was added to 96-well plates at a final concentration of 10% and absorbance measured at 450 nm to measure cytotoxicity. Te CellTiter-Glo Luminescent Cell Viability Assay kit (Promega) was used to assay ATP. The Caspase-Glo kit from Promega was used to detect Caspase 3/7. Caspase 3 activity was measured using one of two fluorescent substrates Caspase 3 Fluorometric Assay Kit (R&D Systems) or Caspase 3 Fluorometric-KIT (Invitrogen). The results are reported in fluorescent units per microgram of cell protein. For short-exposure cell-killing assays: KB3-1 cells were seeded in six-well plates at a density of 5×10^4/mL. The next day, cells were treated for 4 hours with either immunotoxin alone, ABT-737 alone, or combinations of both as indicated. At the end of the treatment, the cells were washed with PBS, trypsinized, and re-plated and incubated for 6 more days. Finally, the cells were washed with PBS and then stained with methylene blue (0.5%) in methanol/water (50:50 by volume).

KB3-1 cells = format: cell-based; conditions: with immunotoxin, data not shown
Raji cells = format: cell-based
H69AR cells = format: cell-based
ATF4 in DLD1 cells = assay: ER stress response (ATF4 immunoblot) in DLD1 cells; format: cell-based; conditions: 4 hours, ABT-737 10 μmol/L, DTT 10 mmol/L
Description: (§1) Immunoblot analysis is inadequate to detect the cellular uptake of immunotoxins, added at subnanomolar concentrations. Thus, we could not document directly that additional molecules of toxin were delivered to the cytosol. Instead, we sought other evidence that ABT-737 was directly or indirectly interacting with the ER. In various cell types, Bcl-2 family members are found associated with the ER (Oakes S A, et al., Proc Natl Acad Sci USA 2005; 102:105-10 and Scorrano L, et al., Science 2003; 300:135-9). To test if ABT-737 interacted with the ER and provoked an ER stress response, we incubated KB3-1 or DLD1 cells for 4 hours with either ABT-737 or with DTT; the latter being a well-known mediator of ER stress. Treated cell extracts were analyzed for the transcription factor ATF4 (Bernales S, Papa F R, Walter P. Annu Rev Cell Dev Biol 2006; 22:487-508). […] Overall, our results are consistent with ABT-737 acting on the ER and causing, either directly or indirectly, an increased translocation of PE- or CET-based immunotoxins to the cytosol.

ATF4 in KB3-1 cells = assay: ER stress response (ATF4 immunoblot) in KB3-1 cells; format: cell-based; conditions: 4 hours, ABT-737 10 μmol/L, DTT 10 mmol/L
Description: as §1

[1] = test system: caspase 3/7 in DLD1 cells; format: cell-based
CD22 (human) = CD22 (human) (UniProt P20273); assay: cell-based or functional assay
UniProt P20273, sequence (P20273 20-847): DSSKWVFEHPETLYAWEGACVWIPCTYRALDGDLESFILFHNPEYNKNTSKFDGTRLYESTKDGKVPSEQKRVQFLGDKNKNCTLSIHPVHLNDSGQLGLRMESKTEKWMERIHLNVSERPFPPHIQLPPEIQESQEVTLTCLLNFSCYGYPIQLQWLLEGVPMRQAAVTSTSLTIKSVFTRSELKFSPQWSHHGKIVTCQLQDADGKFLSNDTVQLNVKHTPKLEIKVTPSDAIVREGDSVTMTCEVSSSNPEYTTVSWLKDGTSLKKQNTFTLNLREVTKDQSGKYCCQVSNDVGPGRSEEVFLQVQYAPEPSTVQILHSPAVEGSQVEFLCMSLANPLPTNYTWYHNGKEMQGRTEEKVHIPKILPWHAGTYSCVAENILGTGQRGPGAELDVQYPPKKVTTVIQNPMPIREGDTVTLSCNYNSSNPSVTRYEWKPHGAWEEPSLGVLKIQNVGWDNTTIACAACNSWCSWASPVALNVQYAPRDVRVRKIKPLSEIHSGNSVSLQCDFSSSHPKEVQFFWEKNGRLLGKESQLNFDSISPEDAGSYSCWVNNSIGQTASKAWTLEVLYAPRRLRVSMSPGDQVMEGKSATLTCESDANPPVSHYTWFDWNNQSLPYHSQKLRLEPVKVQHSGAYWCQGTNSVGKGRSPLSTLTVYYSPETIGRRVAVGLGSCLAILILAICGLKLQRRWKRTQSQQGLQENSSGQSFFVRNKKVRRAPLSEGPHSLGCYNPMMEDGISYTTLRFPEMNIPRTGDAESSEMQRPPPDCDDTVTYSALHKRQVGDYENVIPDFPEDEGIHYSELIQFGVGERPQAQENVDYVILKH

`CC1(C)CCC(c2ccc(Cl)cc2)=C(CN2CCN(c3ccc(C(=O)NS(=O)(=O)c4ccc(N[C@H](CCN5CCOCC5)CSc5ccccc5)c(S(=O)(=O)C(F)(F)F)c4)cc3)CC2)C1` [ABT-263] was tested, and the “enhancement of SKOV3 killing” value (SKOV3) was “similarly enhanced”, the “enhancement of KB3-1 killing” value (KB3-1 cells) was “similarly enhanced” and the “apoptosis, ABT-263 alone” value (Raji cells) was “little or no apoptosis”. The “total apoptosis, in combination with BL22” value (Raji cells) was 62%, the “total apoptosis, in combination with HA22” value (Raji cells) was 68% and the “effect of combination with HB21-PE40” value (H69AR cells) was “synergistic and leads to cell death via apoptosis”. The “sensitivity to killing, agent alone” value (H69AR cells) was “resistant”.

`O[C@@H](CS)[C@@H](O)CS` [DTT] was tested, and the “ER stress response (ATF4)” value (ATF4 in DLD1 cells) was “strongly upregulated” and the “ER stress response (ATF4)” value (ATF4 in KB3-1 cells) was “strongly upregulated”.

With `CN[C@@H]1C[C@H]2O[C@@](C)([C@@H]1OC)n1c3ccccc3c3c4c(c5c6ccccc6n2c5c31)C(=O)NC4` [staurosporine] the “apoptosis, positive control for generating maximal apoptosis” value (Raji cells) was about 74%.

With `CC(C)C[C@H](NC(=O)[C@H](Cc1ccccc1)NC(=O)c1cnccn1)B(O)O` [velcade, bortezomib] the “apoptosis by caspase 3/7 activity” value [1] was “increased caspase 3/7 activity”.

“BL22 (from UniProt P11439 278-389; P11439 406-638)” gave a total apoptosis of Raji cells in 24 hrs (Annexin V / 7-AAD flow cytometry) (CD22 (human)) of 47%.

— patent publication US20120276190A1 (priority 2009, published 2012)
